Laboratory results published in paper PMC5504357, “Antifungal Potential of Copper(II), Manganese(II) and Silver(I) 1,10-Phenanthroline Chelates Against Multidrug-Resistant Fungal Species Forming the Candida haemulonii Complex: Impact on the Planktonic and Biofilm Lifestyles” (Frontiers in Microbiology, 2017).
Values after ≈ are worked out from the molar mass of the structure shown. Where two headings read alike, the source gives them in different places.

Tests used:
Candida duobushaemulonii = assay: Planktonic growth, broth microdilution (CLSI M27-A3), MIC; type: cell-based
From the text: (§1) Three clinical isolates of each species that form the C. haemulonii complex were used in this study: C. haemulonii (LIPCh4 from finger nail, LIPCh7 from toe nail, and LIPCh12 from blood), C. duobushaemulonii (LIPCh1 from finger nail, LIPCh6 from toe nail, and LIPCh8 from blood) and C. haemulonii var. vulnera (LIPCh5 from toe nail, LIPCh9 from urine, and LIPCh11 from blood) (Ramos et al., [2015]). The fungal isolates were identified by the automatized system VITEK® 2 and then characterized by ITS1-5.8S-ITS2 gene sequencing (Ramos et al., [2015]). Fungal cells were cultured in Sabouraud-dextrose medium under constant agitation (130 rpm) for 48 h at 37°C. Human lung adenocarcinoma A549 cells were maintained in culture flasks containing DMEM medium supplemented with 10% fetal bovine serum at 37°C in an atmosphere of 5% CO2.
(§2) Susceptibility profile assays were performed in accordance with the broth microdilution protocol described in the document M27-A3 published by the Clinical and Laboratory Standards Institutes (CLSI, [2008]). Samples of the test chelates were dissolved in DMSO (500 μL) and then serially diluted in a 96-well plate containing RPMI 1640 (Sigma-Aldrich, USA) to give the concentration range of 0.0625-32 mg/L. Aqueous solutions of the metal-free phen ligand and the simple metal salts, MnCl2, CuCl2, and AgNO3, were also screened over the same concentration range. Caspofungin (Sigma-Aldrich) was used as a classical antifungal agent able to block the growth of all clinical isolates of C. haemulonii species as previously reported by our research group (Ramos et al., [2015]). Water dilutions containing DMSO concentrations corresponding to those used to prepare the drug solutions were assessed in parallel. Untreated and compound-treated fungal cells were incubated at 37°C for 48 h and the minimal inhibitory concentration (MIC) was established as the lowest compound concentration where no cellular growth could be detected by visual inspection in accordance to the CLSI recommendation. The geometric mean of the MIC values (GM-MIC) of each compound against all the fungal isolates was calculated using the software, Microsoft Office Excel 2013.

[1] = test system: Candida haemulonii var. vulnera; assay: as above; type: cell-based
From the text: as §1, §2

Candida haemulonii = assay: as above; type: cell-based
From the text: as §1, §2

C. haemulonii complex = assay: Planktonic growth, overall across all nine isolates; type: cell-based, Candida haemulonii complex; settings: for Overall GM-MIC / MIC: geometric mean across all nine strains; for effect on planktonic fungal growth/viability (in words): nine clinical isolates, 0.0625-32 mg/L; for MIC: read-out: Overall GM-MIC
From the text: as §1, §2

A549 cells = assay: Mammalian cell toxicity (MTT assay) and selectivity index; type: cell-based, Human
From the text: as §1
The cytotoxicity was evaluated using the MTT [3-(4,5-dimethylthiazol-2-yl)-2,5-diphenyl tetrazolium bromide] (Sigma-Aldrich) assay (Mosmann, [1983]). A549 cells (10^4) were seeded into tissue culture plates (TPP, Switzerland) and cultured for 24 h at 37°C in a 5% CO2 in order to obtain cellular confluence. The wells were then washed twice with DMEM to remove non-adherent cells and the test compounds were added (in concentrations ranging from 0.0313 to 512 μg/mL) to plates containing DMEM, followed by a 48 h incubation period under the same conditions mentioned above. The cellular viability was evaluated by adding MTT to each well and incubating the plates in the dark for 3 h, allowing the viable cells containing active mitochondrial dehydrogenase enzymes to metabolize MTT-tetrazolium salt into purple formazan. The formazan crystals were then dissolved in DMSO (100 μL) and the absorbance (450 nm) measured using a Thermomax Molecular Device microplate reader. The concentration capable of reducing cellular viability by 50% (CC50) was calculated, and the selectivity index (SI) determined using the following equation: A549 CC50/C. haemulonii complex GM-MIC.

[2] = geometric mean of three C. duobushaemulonii isolates
[3] = isolate LIP Ch1, planktonic, 48 h, 37°C
[4] = isolate LIP Ch6, planktonic, 48 h, 37°C
[5] = isolate LIP Ch8, planktonic, 48 h, 37°C
[6] = geometric mean of three C. haemulonii var. vulnera isolates
[7] = isolate LIP Ch5, planktonic, 48 h, 37°C
[8] = isolate LIP Ch9, planktonic, 48 h, 37°C
[9] = isolate LIP Ch11, planktonic, 48 h, 37°C
[10] = geometric mean of three C. haemulonii isolates
[11] = isolate LIP Ch4, planktonic, 48 h, 37°C
[12] = isolate LIP Ch7, planktonic, 48 h, 37°C
[13] = isolate LIP Ch12, planktonic, 48 h, 37°C

| SMILES | GM-MIC (Candida duobushaemulonii; [2]) | MIC (Candida duobushaemulonii; [3]) | MIC (Candida duobushaemulonii; [4]) | MIC (Candida duobushaemulonii; [5]) | GM-MIC [1, 6] | MIC [1, 7] | MIC [1, 8] | MIC [1, 9] | GM-MIC (Candida haemulonii; [10]) | MIC (Candida haemulonii; [11]) | MIC (Candida haemulonii; [12]) | MIC (Candida haemulonii; [13]) | Overall GM-MIC (C. haemulonii complex) | effect on planktonic fungal growth/viability (in words) (C. haemulonii complex) | A549 (CC50) (A549 cells; MTT, 48 h incubation) | MIC (C. haemulonii complex; in μM) | A549 (CC50) (A549 cells) | further results |
| --- | --- | --- | --- | --- | --- | --- | --- | --- | --- | --- | --- | --- | --- | --- | --- | --- | --- | --- |
| [Cl][Cu][Cl] [CuCl2, reference compound] | >32 mg/L | >32 mg/L | >32 mg/L | >32 mg/L | >32 mg/L | >32 mg/L | >32 mg/L | >32 mg/L | >32 mg/L | >32 mg/L | >32 mg/L | >32 mg/L | > 32 mg/L | no appreciable effects | 123.68 mg/L |  |  |  |
| [Cl][Mn][Cl] [MnCl2, reference compound] | >32 mg/L | >32 mg/L | >32 mg/L | >32 mg/L | >32 mg/L | >32 mg/L | >32 mg/L | >32 mg/L | >32 mg/L | >32 mg/L | >32 mg/L | >32 mg/L | > 32 mg/L | no appreciable effects | 133.76 mg/L |  |  |  |
| CC[C@H](C)C[C@H](C)CCCCCCCCC(=O)N[C@H]1C[C@@H](O)[C@@H](NCCN)NC(=O)[C@@H]2[C@@H](O)CCN2C(=O)[C@H]([C@H](O)CCN)NC(=O)[C@H]([C@H](O)[C@@H](O)c2ccc(O)cc2)NC(=O)[C@@H]2C[C@@H](O)CN2C(=O)[C@H]([C@@H](C)O)NC1=O [Caspofungin, reference compound] |  | 0.125 mg/L (≈ 0.114 µM) |  |  |  |  |  |  |  |  |  |  |  |  |  |  |  | MIC (Candida duobushaemulonii; Candidozyma duobushaemuli, 48 h): 0.125 mg/L (≈ 0.114 µM); MIC (Candida duobushaemulonii; Candidozyma duobushaemuli, 48 h, isolate LIP Ch6, planktonic, 48 h, 37°C, read-out: MIC): 0.25 mg/L (≈ 0.229 µM); MIC (Candida duobushaemulonii; Candidozyma duobushaemuli, geometric mean of three C. duobushaemulonii isolates, read-out: GM-MIC): 0.157 mg/L (≈ 0.144 µM); MIC ([1]; Candidozyma haemuli, 48 h, isolate LIP Ch5, planktonic, 48 h, 37°C, read-out: MIC): 0.25 mg/L (≈ 0.229 µM); MIC ([1]; Candidozyma haemuli, 48 h, isolate LIP Ch9, planktonic, 48 h, 37°C, read-out: MIC): 0.25 mg/L (≈ 0.229 µM); MIC ([1]; Candidozyma haemuli, 48 h, isolate LIP Ch11, planktonic, 48 h, 37°C, read-out: MIC): 0.5 mg/L (≈ 0.457 µM); MIC ([1]; Candidozyma haemuli, geometric mean of three C. haemulonii var. vulnera isolates, read-out: GM-MIC): 0.315 mg/L (≈ 0.288 µM); MIC (Candida haemulonii; Candidozyma haemuli, 48 h): 0.125 mg/L (≈ 0.114 µM); MIC (Candida haemulonii; Candidozyma haemuli, 48 h, isolate LIP Ch4, planktonic, 48 h, 37°C, read-out: MIC): 0.5 mg/L (≈ 0.457 µM); MIC (Candida haemulonii; Candidozyma haemuli, 48 h, isolate LIP Ch7, planktonic, 48 h, 37°C, read-out: MIC): 0.25 mg/L (≈ 0.229 µM); MIC (Candida haemulonii; Candidozyma haemuli, geometric mean of three C. haemulonii isolates, read-out: GM-MIC): 0.25 mg/L (≈ 0.229 µM); MIC (C. haemulonii complex; Candidozyma haemuli, in μM): 0.18 µM; MIC (C. haemulonii complex; Candidozyma haemuli): 0.23 µg/mL |
| O.O.O=C([O-])c1ccccc1C(=O)[O-].[Cu+2].c1cnc2c(c1)ccc1cccnc12 [compound 1, [Cu(ph)(phen)(H2O)2]] | >32 mg/L | >32 mg/L | >32 mg/L | >32 mg/L | >32 mg/L | >32 mg/L | >32 mg/L | >32 mg/L | >32 mg/L | >32 mg/L | >32 mg/L | >32 mg/L | > 32 mg/L |  |  | > 72 µM | 0.53 mg/L |  |
| CCO.CCO.O=C([O-])c1ccc(C(=O)[O-])cc1.O=C([O-])c1ccc(C(=O)[O-])cc1.[Cu+2].[Cu+2].c1cnc2c(c1)ccc1cccnc12.c1cnc2c(c1)ccc1cccnc12.c1cnc2c(c1)ccc1cccnc12.c1cnc2c(c1)ccc1cccnc12 [compound 4, [{Cu(phen)2}2(terph)](terph).13.5H2O.2EtOH] | >32 mg/L | >32 mg/L | >32 mg/L | >32 mg/L | 32 mg/L | 32 mg/L | 32 mg/L | 32 mg/L | >32 mg/L | >32 mg/L | >32 mg/L | >32 mg/L | > 32 mg/L |  | 3.86 mg/L | > 21.92 µM |  |  |
| CCO.CCO.O.O.O.O=C([O-])c1ccccc1C(=O)[O-].[Cu+2].c1cnc2c(c1)ccc1cccnc12.c1cnc2c(c1)ccc1cccnc12 [compound 2, [Cu(ph)(phen)2].3H2O.2EtOH] | >32 mg/L | >32 mg/L | >32 mg/L | >32 mg/L | >32 mg/L | >32 mg/L | >32 mg/L | >32 mg/L | >32 mg/L | >32 mg/L | >32 mg/L | >32 mg/L | > 32 mg/L |  |  | > 43.52 µM | 1.93 mg/L |  |
